Experimental data: article PMC7748245, “Identification and Optimization of a Series of 8-Hydroxy Naphthyridines with Potent In Vitro Antileishmanial Activity: Initial SAR and Assessment of In Vivo Activity” (Journal of Medicinal Chemistry, 2020)
In brackets after ≈: the same amount, converted by molar mass.

Assays:
L. donovani amastigotes = experiment: Intramacrophage L. donovani assay (Ld InMac); assay type: cell-based, Leishmania donovani; settings: for Ld InMac (pEC50): L. donovani amastigotes in THP-1 cells, 96 h compound exposure
Method: (§1) This assay was conducted as previously described,[8] except for compound exposure time, which was 96 h instead of 72 h.

THP-1 cells = experiment: THP-1 host cell toxicity readout of the intramacrophage assay; assay type: cell-based, human; settings: for THP-1 (pEC50): human THP-1 host cells
Method: as §1

[1] = Mouse liver microsomal intrinsic clearance; assay type: in vitro ADME; settings: for Cli (mouse liver microsomal intrinsic clearance): mouse liver microsomes; for Cli (mouse, ml/min/g): supplement sheet
Method: (§2) These assays were conducted as previously described.[23]

[2] = Kinetic aqueous solubility; assay type: physicochemical; settings: kinetic; read-out: Aq Solubility (kinetic aqueous solubility)
Method: as §2

Chrom Log D pH7.4 = assay type: physicochemical; settings: for ChromLogDpH7.4: pH 7.4; for ChromLogD: supplement sheet
Method: This assay was conducted as previously described.[11]

[3] = Mouse PK study 50 mg/kg ip (metabolites, tolerability); assay type: in vivo; settings: Balb C mice
Method: Since 7 itself was metabolically unstable (Cli = 10 mg/mL/g), we became interested in transferring the SAR from the triazole subseries (e.g., 16) to investigate its impact on metabolic stability, with a particular focus on glucuronidation. To this end, we synthesized 26 (Table 5) as a direct analogue of triazole 16.
Figure 3 PK profile of 26, showing levels of parent, glucuronide adduct, major hydroxylated metabolite, and other minor metabolites. Data are based on two replicates, with error bars representing the range of the data from the two runs. Blood/water (30 μL, 1:2) were collected following 50 mg/kg ip administration to Balb C mice at prescribed time points; 90 μL of acetonitrile (ACN) was then added to each sample and the samples were centrifuged for 5 min at 7000 rpm; 90 μL of supernatant was removed and added to 50 μL of Milli-Q water before ultrahigh-performance liquid chromatography–quadrupole time-of-flight (UPLC Q-TOF) analysis.
We synthesized a set of benzyl amides, where 4-methoxy analogue 27 and α-methyl-4-fluoro analogue 28 both gave very encouraging profiles, meeting progression criteria in terms of potency, metabolic stability, and clearance. […] Due to its impressive in vitro potency, we selected 28 for progression into an in vivo PK study.
We noted that a related compound from Merck, L-870,810 (30),[17] was reported as a clinical candidate targeting HIV integrase, which progressed as far as phase II clinical trials. […] Also, introducing substituents into the 5-naphthyridyl position had been a successful strategy for improving metabolic stability and potency in the triazole subseries. We therefore investigated a range of 5-substituted naphthyridyl analogues (Table 5). THP-amine 31 and morpholine 32 lost potency compared to parent compound 7, so we switched attention back to 5-phenylnaphthyridines. […] Further combinations of nonaromatic amides with differently substituted 5-phenylnaphthyridines were synthesized, and while changing the phenyl substituent gave flat SAR and no advantage over previous compounds, exploration of the amide led to 34 with a trans-4-methoxycyclopropylamide. Compound 34 gave a good balance of potency, solubility, and microsomal stability and was therefore selected for a mouse PK study.

Compound | LdInMac pIC50 (L. donovani amastigotes; supplement sheet) | THP-1 (pEC50) (THP-1 cells) | THP1 pIC50 (THP-1 cells; supplement sheet) | Cli (mouse liver microsomal intrinsic clearance) [1] | Cli (mouse, ml/min/g) [1] | solubility kinetic [2] | ChromLogDpH7.4 (Chrom Log D pH7.4) | ChromLogD (Chrom Log D pH7.4) | IC50 (L. donovani amastigotes; Leishmania donovani, supplement sheet, read-out: LdInMac pIC50 (converted)) | IC50 (THP-1 cells; Homo sapiens, THP-1, supplement sheet, read-out: THP1 pIC50 (converted)) | parent remaining in blood ([3]; 8 h post-dose) | in vivo glucuronidation / metabolites ([3]; blood) | Ld InMac (pEC50) (L. donovani amastigotes)
5-(Dimethylamino)-7-(3-methyl-1H-1,2,4-triazol-5-yl)-1,6-naphthyridin-8-ol [Compound 9] | 4.8 | <4.3 | <4.3 | 14 mL/min/g | 14 mL/min/g | >250 µM | -0.6 | -0.6 |  |  |  |  | 
(R)-N-(1-(4-Fluorophenyl)ethyl)-1-methyl-4-oxo-1,4-dihydro-1,5-naphthyridine-3-carboxamide [Compound 22] | <4.3 | <4.3 | <4.3 | 0.7 mL/min/g | 0.7 mL/min/g | >250 µM |  |  |  |  |  |  | 
CNC(=O)c1nc(-c2ccccc2OC)c2cccnc2c1O [Compound 26, 8-Hydroxy-5-(2-methoxyphenyl)-N-methyl-1,6-naphthyridine-7-carboxamide] |  |  |  |  |  |  |  |  | 10 µM | 39.8 µM | significant quantities of parent were still present 8 h post-dose | little evidence of glucuronidation | 
2-(8-Hydroxy-7-(3-methyl-1H-1,2,4-triazol-5-yl)-1,6-naphthyridin-5-yl)-1,2-thiazinane 1,1-dioxide [Compound 13] | <4.3 | <4.3 | <4.3 | 0.6 mL/min/g | 0.6 mL/min/g | 250 µM | 1.5 | 1.5 |  |  |  |  | 
O=C(NCc1ccc(Cl)cc1)c1nc(NC2CCOCC2)c2cccnc2c1O [Compound 31, N-(4-Chlorobenzyl)-8-hydroxy-5-((tetrahydro-2H-pyran-4-yl)amino)-1,6-naphthyridine-7-carboxamide] | 5.3 | <4.3 | <4.3 | 2.2 mL/min/g | 2.2 mL/min/g | >250 µM | 5.3 | 5.3 |  |  |  |  | 5.3
Cc1n[nH]c(-c2nc(N3CCCC3=O)c3cccnc3c2O)n1 [Compound 12, 1-(8-Hydroxy-7-(3-methyl-1H-1,2,4-triazol-5-yl)-1,6-naphthyridin-5-yl)pyrrolidin-2-one] | <4.3 | <4.3 | <4.3 | <0.5 mL/min/g | <0.5 mL/min/g | 109 µM (≈ 33.8 µg/mL) |  |  |  |  |  |  | 
Cc1n[nH]c(-c2nc(-c3ccccc3)c3cccnc3c2O)n1 [Compound 14, 7-(3-Methyl-1H-1,2,4-triazol-5-yl)-5-phenyl-1,6-naphthyridin-8-ol] | 5.9 | <4.3 | <4.3 | 9.4 mL/min/g | 9.4 mL/min/g | 160 µM (≈ 48.5 µg/mL) |  |  |  |  |  |  | 5.9
CNc1nc(-c2nc(C)n[nH]2)c(O)c2ncccc12 [Compound 8, 7-(3-Methyl-1H-1,2,4-triazol-5-yl)-5-(methylamino)-1,6-naphthyridin-8-ol] | <4.3 | <4.3 | <4.3 | 3.1 mL/min/g | 3.1 mL/min/g | >250 µM | -0.2 | -0.2 |  |  |  |  | 
N-(Cyclopropylmethyl)-8-hydroxy-5-(2-methoxyphenyl)-1,6-naphthyridine-7-carboxamide [Compound 33] | 5.7 | <4.3 | <4.3 | 8 mL/min/g | 8 mL/min/g | >250 µM |  |  |  |  |  |  | 5.7
7-(3-Methyl-1H-1,2,4-triazol-5-yl)-5-(2-(trifluoromethyl)phenyl)-1,6-naphthyridin-8-ol [Compound 15] | 7 | <4.3 | <4.3 | 1.4 mL/min/g | 1.4 mL/min/g | >250 µM | 4.3 | 4.3 |  |  |  |  | 7.0
Cc1n[nH]c(-c2nc(NCc3ccc(Cl)cc3)c3cccnc3c2O)n1 [Compound 10, 5-((4-Chlorobenzyl)amino)-7-(3-methyl-1H-1,2,4-triazol-5-yl)-1,6-naphthyridin-8-ol] | 5.8 | <4.3 | <4.3 | 3.4 mL/min/g | 3.4 mL/min/g | 219 µM (≈ 80.3 µg/mL) | 4.4 | 4.4 |  |  |  |  | 
O=C(NCc1ccc(F)cc1)c1nc(N2CCCCS2(=O)=O)c2cccnc2c1O [Compound 30, N-(4-Fluorobenzyl)-5-(1,1-dioxido-1,2-thiazinan-2-yl)-8-hydroxy-1,6-naphthyridine-7-carboxamide, reference compound] | <4.3 | 4.5 | 4.5 | 2.0 mL/min/g | 2 mL/min/g | > 250 µM |  |  |  |  |  |  | 
Cc1n[nH]c(-c2nc(N3CCOCC3)c3cccnc3c2O)n1 [Compound 11, 7-(3-Methyl-1H-1,2,4-triazol-5-yl)-5-morpholino-1,6-naphthyridin-8-ol] | 5 | <4.3 | <4.3 | 3.1 mL/min/g | 3.1 mL/min/g | >250 µM | 1.8 | 1.8 |  |  |  |  | 
N-(4-Chlorobenzyl)-8-hydroxy-5-morpholino-1,6-naphthyridine-7-carboxamide [Compound 32] | <4.3 | <4.3 | <4.3 | 24 mL/min/g | 24 mL/min/g | 219 µM |  |  |  |  |  |  | <4.3
